Test results published in PubChem BioAssay AID330 (DTP/NCI, 2004).
Where “and” joins values, the source holds several entries; their conditions need not be identical. Equal values may be shown once. Toxic doses and inconclusive results are not listed.

System: P388 leukemia ip, CD2F1 mice, survival T/C
Experiment: NCI In Vivo Anticancer Drug Screen. Data for tumor model P388 Leukemia (intraperitoneal) in CD2F1 (CDF1) mice
Details: endpoint: median survival time, higher = longer survival
Outline: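 Mice carrying the transplanted tumor received test compound or vehicle. Survival was recorded in each group, and the value is the treated-group measurement divided by that of the vehicle-treated control group.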

[1] = dose: 50.0 mg/kg/injection, schedule: Q01DX009 (ip), vehicle: saline with Tween-80
[2] = dose: 100.0 mg/kg/injection, schedule: Q01DX009 (ip), vehicle: saline with Tween-80
[3] = dose: 50.0 mg/kg/injection, schedule: Q01DX005 (ip), vehicle: saline with Tween-80
[4] = dose: 100.0 mg/kg/injection, schedule: Q01DX005 (ip), vehicle: saline with Tween-80
[5] = dose: 200.0 mg/kg/injection, schedule: Q01DX005 (ip), vehicle: saline with Tween-80
[6] = dose: 60.0 mg/kg/injection, schedule: Q01DX005 (ip), vehicle: saline with Tween-80
[7] = dose: 120.0 mg/kg/injection, schedule: Q01DX005 (ip), vehicle: saline with Tween-80
[8] = dose: 240.0 mg/kg/injection, schedule: Q01DX005 (ip), vehicle: saline with Tween-80
[9] = dose: 50.0 mg/kg/injection, schedule: Q01DX005 (ip), vehicle: Klucel (hydroxypropylcellulose) (HPC)
[10] = dose: 100.0 mg/kg/injection, schedule: Q01DX005 (ip), vehicle: Klucel (hydroxypropylcellulose) (HPC)
[11] = dose: 200.0 mg/kg/injection, schedule: Q01DX005 (ip), vehicle: Klucel (hydroxypropylcellulose) (HPC)
[12] = dose: 60.0 mg/kg/injection, schedule: Q01DX005 (ip), vehicle: Klucel (hydroxypropylcellulose) (HPC)
[13] = dose: 120.0 mg/kg/injection, schedule: Q01DX005 (ip), vehicle: Klucel (hydroxypropylcellulose) (HPC)
[14] = dose: 240.0 mg/kg/injection, schedule: Q01DX005 (ip), vehicle: Klucel (hydroxypropylcellulose) (HPC)
[15] = dose: 100.0 mg/kg/injection, schedule: Q04DX003 (ip), vehicle: saline
[16] = dose: 200.0 mg/kg/injection, schedule: Q04DX003 (ip), vehicle: saline
[17] = dose: 50.0 mg/kg/injection, schedule: Q01DX009 (ip), vehicle: saline
[18] = dose: 100.0 mg/kg/injection, schedule: Q01DX009 (ip), vehicle: saline
[19] = dose: 200.0 mg/kg/injection, schedule: Q01DX009 (ip), vehicle: saline
[20] = dose: 50.0 mg/kg/injection, schedule: Q01DX005 (ip), vehicle: saline
[21] = dose: 100.0 mg/kg/injection, schedule: Q01DX005 (ip), vehicle: saline
[22] = dose: 200.0 mg/kg/injection, schedule: Q01DX005 (ip), vehicle: saline
[23] = dose: 200.0 mg/kg/injection, schedule: Q01DX009 (ip), vehicle: saline with Tween-80

With O=c1c2c([nH]n1-c1ccccc1)-c1ccccc1CS2 the T/C (dose: 25.0 mg/kg/injection, schedule: Q01DX009 (ip), vehicle: saline with Tween-80) was 105 % of control, the T/C [1] was 104 % of control and the T/C [2] was 117 % of control.
With O=c1[nH]c(=S)[nH]nc1/C=C/c1cccc(I)c1 the T/C (dose: 12.5 mg/kg/injection, schedule: Q04DX002 (ip), vehicle: saline) was 100 % of control, the T/C (dose: 25.0 mg/kg/injection, schedule: Q04DX002 (ip), vehicle: saline) was 100 % of control and the T/C (dose: 50.0 mg/kg/injection, schedule: Q04DX002 (ip), vehicle: saline) was 100 % of control. For the same molecule, the T/C (dose: 200.0 mg/kg/injection, schedule: Q04DX002 (ip), vehicle: saline) was 106 % of control.
CCOC(=O)Cc1csc(=S)n1C was tested, and the T/C [3] was 102 % of control, the T/C [4] was 109 % of control and the T/C [5] was 109 % of control.
Cc1ccc2sc3c(ccc(=O)n3C)c(=O)c2c1 was tested, and the T/C (dose: 100.0 mg/kg/injection, schedule: Q04DX002 (ip), vehicle: saline with Tween-80) was 115 % of control and the T/C (dose: 200.0 mg/kg/injection, schedule: Q04DX002 (ip), vehicle: saline with Tween-80) was 120 % of control.
With C[N+](C)(C)/N=C(/c1ccccc1)C1CCCCC1 the T/C (dose: 12.5 mg/kg/injection, schedule: Q01DX001 (ip), vehicle: Klucel (hydroxypropylcellulose) (HPC)) was 91 % of control, the T/C (dose: 25.0 mg/kg/injection, schedule: Q01DX001 (ip), vehicle: Klucel (hydroxypropylcellulose) (HPC)) was 100 % of control and the T/C (dose: 50.0 mg/kg/injection, schedule: Q01DX001 (ip), vehicle: Klucel (hydroxypropylcellulose) (HPC)) was 97 % of control.
For Cn1ccnc1[Si](C)(C)C, the T/C [6] was 101 % of control, the T/C [7] was 107 % of control and the T/C [8] was 99 % of control.
For CCOc1cc(=O)cc2n(-c3cc(OCC)c(OC(C)=O)c(OCC)c3)c3ccccc3nc1-2, the T/C (dose: 50.0 mg/kg/injection, schedule: Q01DX009 (ip), vehicle: suspension in saline) was 99 % of control, the T/C (dose: 100.0 mg/kg/injection, schedule: Q01DX009 (ip), vehicle: suspension in saline) was 100 % of control and the T/C (dose: 200.0 mg/kg/injection, schedule: Q01DX009 (ip), vehicle: suspension in saline) was 99 % of control.
With CC(NC(=O)OCc1ccccc1)C(=O)NC(Cc1c[nH]c2ccccc12)C(=O)O (stereo unspecified) the T/C [9] was 99 % of control, the T/C [10] was 97 % of control and the T/C [11] was 95 % of control.
With COc1ccc(C(=O)CCC2(C)OCCO2)cc1OC the T/C [12] was 101 % of control, the T/C [13] was 108 % of control and the T/C [14] was 106 % of control.
With O=C(NCCCCCCNC(=O)C12CC3CC(CC(C3)C1)C2)C12CC3CC(CC(C3)C1)C2 the T/C [9] was 92 % of control, the T/C [10] was 92 % of control and the T/C [11] was 90 % of control.
With Cc1ccc(O)c(C2CC(C#N)CCN2C)c1 (stereo unspecified) the T/C [6] was 98 % of control, the T/C [7] was 100 % of control and the T/C [8] was 105 % of control.
CC(C)(C#N)NCCNC(C)(C)C#N was tested, and the T/C (dose: 6.25 mg/kg/injection, schedule: Q01DX001 (ip), vehicle: saline) was 108 % of control and the T/C (dose: 12.5 mg/kg/injection, schedule: Q01DX001 (ip), vehicle: saline) was 99 % of control.
For Cc1c(-c2ccccc2)noc1-c1ccccc1, the T/C [15] was 106 % of control, the T/C [16] was 102 % of control and the T/C (dose: 400.0 mg/kg/injection, schedule: Q04DX003 (ip), vehicle: saline) was 101 % of control.
In the case of Cc1nc(N)n[nH]1, the T/C [17] is reported as 102 % of control, the T/C [18] is reported as 109 % of control and the T/C [19] is reported as 105 % of control. For the same molecule, the T/C (dose: 400.0 mg/kg/injection, schedule: Q01DX009 (ip), vehicle: saline) was 96 % of control.
For CC(C)N(CCCO)CCCO, the T/C [17] was 97 % of control, the T/C [18] was 93 % of control and the T/C [19] was 102 % of control.
O=C1c2cc(Oc3ccccc3)c(S(=O)(=O)O)c(S(=O)(=O)O)c2C(=O)c2c(O)ccc(O)c21 was tested, and the T/C (dose: 25.0 mg/kg/injection, schedule: Q01DX005 (ip), vehicle: saline) was 104 % of control, the T/C [20] was 107 % of control and the T/C [21] was 94 % of control. The T/C [22] was 94 % of control.
With CCCC(C(=O)OC)C(=O)C(C)c1nc2n(c1O)C(=N)N=N2 (stereo unspecified) the T/C [20] was 97 % of control, the T/C [21] was 97 % of control and the T/C [22] was 98 % of control.
In the case of Cc1ccccc1C1N=C2Oc3ccccc3C=C2C(=O)N1 (stereo unspecified), the T/C (dose: 12.5 mg/kg/injection, schedule: Q01DX005 (ip), vehicle: Klucel (hydroxypropylcellulose) (HPC)) is reported as 100 % of control and 102 % of control and 98 % of control and the T/C (dose: 25.0 mg/kg/injection, schedule: Q01DX005 (ip), vehicle: Klucel (hydroxypropylcellulose) (HPC)) is reported as 93 % of control.
With O=C1c2ccccc2C(=O)N1CN1C(=O)c2ccccc2S1(=O)=O the T/C [9] was 93 % of control and the T/C [10] was 98 % of control.
In the case of CN=C(N)c1ccc(N=C(N)c2ccc(-c3ccc(C(N)=Nc4ccc(C(N)=NC)cc4)cc3)cc2)cc1, the T/C (dose: 18.0 mg/kg/injection, schedule: Q01DX009 (ip), vehicle: saline) is reported as 154 % of control, the T/C (dose: 625.0 micrograms/kg/injection, schedule: Q01DX009 (ip), vehicle: saline with Tween-80) is reported as 91 % of control and the T/C (dose: 1250.0 micrograms/kg/injection, schedule: Q01DX009 (ip), vehicle: saline with Tween-80) is reported as 108 % of control. The T/C (dose: 2500.0 micrograms/kg/injection, schedule: Q01DX009 (ip), vehicle: saline with Tween-80) was 108 % of control.
In the case of O=[N+]([O-])c1ccc([Se]c2ncccn2)c([N+](=O)[O-])c1, the T/C (dose: 25.0 mg/kg/injection, schedule: Q04DX003 (ip), vehicle: saline) is reported as 104 % of control, the T/C (dose: 50.0 mg/kg/injection, schedule: Q04DX003 (ip), vehicle: saline) is reported as 104 % of control and the T/C [15] is reported as 100 % of control and 117 % of control. For the same molecule, the T/C [16] was 100 % of control.
For N#CC1N(C(=O)Oc2ccccc2)c2ccccc2N1C(=O)Oc1ccccc1, the T/C (dose: 7.5 mg/kg/injection, schedule: Q01DX005 (ip), vehicle: saline with Tween-80) was 92 % of control and the T/C (dose: 15.0 mg/kg/injection, schedule: Q01DX005 (ip), vehicle: saline with Tween-80) was 91 % of control.
With O=C1CN(c2ccccc2)C(=O)CN1/N=C/c1ccco1 the T/C (dose: 12.5 mg/kg/injection, schedule: Q01DX005 (ip), vehicle: saline with Tween-80) was 100 % of control, the T/C (dose: 25.0 mg/kg/injection, schedule: Q01DX005 (ip), vehicle: saline with Tween-80) was 95 % of control and the T/C [3] was 100 % of control and 94 % of control. For the same molecule, the T/C [4] was 98 % of control and the T/C [5] was 103 % of control.
In the case of NCc1nnn(Cc2ccccc2)c1N, the T/C [1] is reported as 90 % of control, the T/C [2] is reported as 92 % of control and the T/C [23] is reported as 92 % of control.
With O=c1c2ccccc2nc(-c2ccc(Cl)cc2)n1O the T/C [3] was 92 % of control and the T/C [4] was 88 % of control.
CCCNC(=O)CCC(NS(=O)(=O)c1ccc(C)cc1)C(=O)O (stereo unspecified) was tested, and the T/C [9] was 100 % of control, the T/C [10] was 100 % of control and the T/C [11] was 98 % of control.
In the case of COc1cc2c(cc1O)N=C[C@@H]1CCC(O)N1C2=O (mixture of isomers), the T/C (dose: 1.0 mg/kg/injection, schedule: Q01DX009 (ip), vehicle: saline) is reported as 96 % of control and the T/C (dose: 2.0 mg/kg/injection, schedule: Q01DX009 (ip), vehicle: saline) is reported as 104 % of control.
With N#CC1=C(N)OC(C2CC2)=C(C#N)C1c1cccs1 (stereo unspecified) the T/C [12] was 104 % of control, the T/C [13] was 100 % of control and the T/C [14] was 96 % of control.
In the case of CC1C(=O)OC23CC(C)(C)C4OC42C(C)CCC13O (stereo unspecified), the T/C (dose: 0.37 mg/kg/injection, schedule: Q01DX009 (ip), vehicle: saline) is reported as 93 % of control, the T/C (dose: 0.75 mg/kg/injection, schedule: Q01DX009 (ip), vehicle: saline) is reported as 99 % of control and the T/C (dose: 1.5 mg/kg/injection, schedule: Q01DX009 (ip), vehicle: saline) is reported as 97 % of control. The T/C (dose: 3.0 mg/kg/injection, schedule: Q01DX009 (ip), vehicle: saline) was 99 % of control.
With Nc1cc(Cl)c(Cl)c(Cl)c1N the T/C (dose: 12.5 mg/kg/injection, schedule: Q01DX009 (ip), vehicle: saline) was 106 % of control, the T/C (dose: 25.0 mg/kg/injection, schedule: Q01DX009 (ip), vehicle: saline) was 104 % of control and the T/C [1] was 105 % of control. The T/C [17] was 103 % of control, the T/C [2] was 105 % of control and the T/C [18] was 105 % of control and 93 % of control. The T/C [23] was 102 % of control and the T/C [19] was 123 % of control and 93 % of control and 94 % of control.
